# Laboratory results from patent publication US20160287571A1, “PHARMACEUTICAL COMPOSITIONS COMPRISING ANTIBACTERIAL AGENTS” (priority 2013, published 2016).
# Like-named read-outs stand apart in the source and are kept apart here.
# What was measured:
# Type in all cases: cell-based, Acinetobacter baumannii
# [1] = tested on: A. baumannii NCTC 13302 (OXA 51, OXA 25); assay: Time kill study; conditions: for Bacterial count: initial count 6.54 log CFU/ml; for Effect on bacterial counts throughout the duration of the study (in words): A. baumannii NCTC 13302, summary of Table 3
# Method: (§1) The synergistic killing effect of the combinations according to invention was studied using time kill studies. In a typical time kill study, freshly grown cultures were diluted to the required cell density (initial starting inoculum) in Cation adjusted Muller Hinton broth medium (BD, USA). The antibacterial agents (either alone or in combination) at the required concentrations were added into the culture-containing medium. The samples were incubated under shaking condition (120 rpm) at 37° C. Enumeration of viable bacterial count was done every 2 hour by diluting in normal saline and plating on to the Tryptic Soya Agar plates (BD, USA). The plates were incubated for 24 hours to arrive at the viable bacterial count. The results are expressed in terms of Log CFU per […]. In general, the decrease of 1 Log CFU/ml, corresponds to 90% killing of bacteria. Similarly, 2 Log CFU/ml reductions indicates 99% killing of bacteria and 3 Log CFU/ml reductions is equal to 99.9% killing of bacteria.
# [2] = tested on: A. baumannii NCTC 13304 (OXA 51, OXA 27); assay: Time kill study; conditions: for Bacterial count: initial count 6.06 log CFU/ml
# Method: as §1
# [3] = tested on: A. baumannii NCTC 13303 (OXA 51, OXA 26); assay: MIC in Muller Hinton Agar (CLSI agar dilution)
# Method: (§2) The antibacterial activity of combinations according to the invention against resistant bacterial strains was investigated. Minimum Inhibitory Concentration (MIC) for the combinations according to invention was determined in Muller Hinton Agar (MHA) (BD, USA) according to Clinical and Laboratory Standards Institute (CLSI) recommendations (Clinical and Laboratory Standards Institute (CLSI), Performance Standards for Antimicrobial Susceptibility Testing, 20th Informational Supplement, M 100-S20, Volume 30, No. 1, 2010). Typically, the test strains were adjusted to deliver about 10^4 CFU per spot with a multipoint inoculator (Applied Quality Services, UK). The plates were pored with MHA containing doubling concentration range of the test combinations according to invention. The plates were inoculated and were incubated at 35° C. for 18 hours.
# [4] = tested on: A. baumannii G 156 (OXA 51, OXA 23); assay: MIC in Muller Hinton Agar (CLSI agar dilution)
# Method: as §2
# [5] = tested on: A. baumannii NCTC 13305 (OXA 51, OXA 58); assay: MIC in Muller Hinton Agar (CLSI agar dilution)
# Method: as §2
# [6] = tested on: A. baumannii Q 1460648 (OXA 51, OXA 23); assay: MIC in Muller Hinton Agar (CLSI agar dilution)
# Method: as §2
# [7] = tested on: A. baumannii NCTC 13302 (OXA 51, OXA 25); assay: MIC in Muller Hinton Agar (CLSI agar dilution)
# Method: as §2
# [8] = tested on: A. baumannii NCTC 13301 (OXA 51, OXA 23); assay: MIC in Muller Hinton Agar (CLSI agar dilution)
# Method: as §2
# [9] = tested on: A. baumannii M 126 (OXA 51, OXA 23); assay: MIC in Muller Hinton Agar (CLSI agar dilution)
# Method: as §2
# [10] = tested on: A. baumannii J 144 (OXA 51, OXA 23); assay: MIC in Muller Hinton Agar (CLSI agar dilution)
# Method: as §2
# [11] = tested on: A. baumannii NCTC 13304 (OXA 51, OXA 27); assay: MIC in Muller Hinton Agar (CLSI agar dilution)
# Method: as §2
# [12] = 2 hours, agent alone at 4 mcg/ml
# [13] = 4 hours, agent alone at 4 mcg/ml
# [14] = 6 hours, agent alone at 4 mcg/ml
# [15] = Acinetobacter baumannii, NCTC13303, agent alone, A. baumannii NCTC 13303, read-out: MIC
# [16] = Acinetobacter baumannii, agent alone, A. baumannii G 156, read-out: MIC
# [17] = Acinetobacter baumannii, NCTC13305, agent alone, A. baumannii NCTC 13305, read-out: MIC
# [18] = Acinetobacter baumannii, agent alone, A. baumannii Q 1460648, read-out: MIC
# [19] = Acinetobacter baumannii, NCTC13302, agent alone, A. baumannii NCTC 13302, read-out: MIC
# [20] = Acinetobacter baumannii, NCTC13301, agent alone, A. baumannii NCTC 13301, read-out: MIC
# [21] = Acinetobacter baumannii, agent alone, A. baumannii M 126, read-out: MIC
# [22] = Acinetobacter baumannii, agent alone, A. baumannii J 144, read-out: MIC
# [23] = Acinetobacter baumannii, NCTC13304, agent alone, A. baumannii NCTC 13304, read-out: MIC
molecule,measurement,setting,value
"O=C(NNC(=O)[C@@H]1CC[C@@H]2CN1C(=O)N2OS(=O)(=O)O)[C@@H]1CCCNC1 [Compound of Formula (I), (2S, 5R)-sulphuric acid mono-[2-(N′-[(R)-piperidin-3-carbonyl]-hydrazinocarbonyl)-7-oxo-1,6-diaza-bicyclo[3.2.1]oct-6-yl] ester]",Bacterial count,[1]; [12],7.5 Log CFU/ml
same,Bacterial count,[1]; [13],7.8 Log CFU/ml
same,Bacterial count,[1]; [14],7.95 Log CFU/ml
same,Bacterial count,"[1]; 8 hours, agent alone at 4 mcg/ml",8.4 Log CFU/ml
same,Effect on bacterial counts throughout the duration of the study (in words),[1],did not reduce the bacterial counts
same,Bacterial count,[2]; [12],7 Log CFU/ml
same,Bacterial count,[2]; [13],7.55 Log CFU/ml
same,Bacterial count,[2]; [14],8.1 Log CFU/ml
same,Effect on bacterial counts throughout the duration of the study (in words),"[2]; A. baumannii NCTC 13304, summary of Table 4",did not reduce the bacterial counts
same,MIC,[3]; [15],> 32 µg/mL
same,MIC,[4]; [16],> 32 µg/mL
same,MIC,[5]; [17],> 32 µg/mL
same,MIC,[6]; [18],> 32 µg/mL
same,MIC,[7]; [19],> 32 µg/mL
same,MIC,[8]; [20],> 32 µg/mL
same,MIC,[9]; [21],> 32 µg/mL
same,MIC,[10]; [22],> 32 µg/mL
same,MIC,[11]; [23],> 32 µg/mL
"C[C@@H](O)[C@H]1C(=O)N2C(C(=O)O)=C(SCCN=CN)C[C@H]12 [Imipenem, imipenem]",Bacterial count,"[1]; 2 hours, agent alone at 8 mcg/ml",7.87 Log CFU/ml
same,Bacterial count,"[1]; 4 hours, agent alone at 8 mcg/ml",8.27 Log CFU/ml
same,Bacterial count,"[1]; 6 hours, agent alone at 8 mcg/ml",8.07 Log CFU/ml
same,Bacterial count,"[1]; 8 hours, agent alone at 8 mcg/ml",8.47 Log CFU/ml
same,Bacterial count,"[2]; 2 hours, agent alone at 16 mcg/ml",6.34 Log CFU/ml
same,Bacterial count,"[2]; 4 hours, agent alone at 16 mcg/ml",7.47 Log CFU/ml
same,Bacterial count,"[2]; 6 hours, agent alone at 16 mcg/ml",7.07 Log CFU/ml
same,MIC,[3]; [15],> 32 µg/mL
same,MIC,[4]; [16],16 µg/mL
same,MIC,[5]; [17],8 µg/mL
same,MIC,[6]; [18],32 µg/mL
same,MIC,[7]; [19],> 32 µg/mL
same,MIC,[8]; [20],32 µg/mL
same,MIC,[9]; [21],16 µg/mL
same,MIC,[10]; [22],> 32 µg/mL
same,MIC,[11]; [23],32 µg/mL
"C[C@@H](O)[C@H]1C(=O)N2C(C(=O)O)=C(S[C@@H]3CN[C@H](C(=O)N(C)C)C3)[C@H](C)[C@H]12 [Meropenem, meropenem]",MIC,[3]; [15],> 32 µg/mL
same,MIC,[4]; [16],32 µg/mL
same,MIC,[5]; [17],4 µg/mL
same,MIC,[6]; [18],32 µg/mL
same,MIC,[9]; [21],32 µg/mL
same,MIC,[11]; [23],32 µg/mL
"CN(C)c1cc(NC(=O)CNC(C)(C)C)c(O)c2c1C[C@H]1C[C@H]3[C@H](N(C)C)C(O)=C(C(N)=O)C(=O)[C@@]3(O)C(O)=C1C2=O [Tigecycline, tigecycline]",Bacterial count,"[1]; 2 hours, agent alone at 1 mcg/ml",3.47 Log CFU/ml
same,Bacterial count,"[1]; 4 hours, agent alone at 1 mcg/ml",3 Log CFU/ml
same,Bacterial count,"[1]; 6 hours, agent alone at 1 mcg/ml",3 Log CFU/ml
same,Bacterial count,"[1]; 8 hours, agent alone at 1 mcg/ml",3.23 Log CFU/ml
same,Effect on bacterial counts throughout the duration of the study (in words),[1],exhibited the reduction of the bacterial counts
same,MIC,"[3]; Acinetobacter baumannii, NCTC13303",2 µg/mL
same,MIC,[4]; Acinetobacter baumannii,1 µg/mL
same,MIC,"[5]; Acinetobacter baumannii, NCTC13305",0.5 µg/mL
same,MIC,[6]; Acinetobacter baumannii,1 µg/mL
same,MIC,"[7]; Acinetobacter baumannii, NCTC13302",2 µg/mL
same,MIC,"[8]; Acinetobacter baumannii, NCTC13301",2 µg/mL
same,MIC,[9]; Acinetobacter baumannii,0.5 µg/mL
same,MIC,[10]; Acinetobacter baumannii,2 µg/mL
same,MIC,"[11]; Acinetobacter baumannii, NCTC13304",0.5 µg/mL
colistin,MIC,"[3]; agent alone, A. baumannii NCTC 13303",1 µg/mL
same,MIC,"[4]; agent alone, A. baumannii G 156",1 µg/mL
same,MIC,"[5]; agent alone, A. baumannii NCTC 13305",1 µg/mL
same,MIC,"[6]; agent alone, A. baumannii Q 1460648",1 µg/mL
same,MIC,"[7]; agent alone, A. baumannii NCTC 13302",2 µg/mL
same,MIC,"[8]; agent alone, A. baumannii NCTC 13301",2 µg/mL
same,MIC,"[9]; agent alone, A. baumannii M 126",1 µg/mL
same,MIC,"[10]; agent alone, A. baumannii J 144",1 µg/mL
same,MIC,"[11]; agent alone, A. baumannii NCTC 13304",1 µg/mL
